pIC50: −log10 of the molar value.
What was measured:
SF-295 = experiment: Growth inhibition of human SF295 cells after 48 hrs by sulforhodamine B assay; format: functional; settings: SF-295, 48 h
KM12 = experiment: Growth inhibition of human KM12 cells after 48 hrs by sulforhodamine B assay; format: functional; settings: KM12, 48 h
OVCAR-3 = experiment: Growth inhibition of human OVCAR-3 cells after 48 hrs by sulforhodamine B assay; format: functional; settings: OVCAR-3, 48 h
HOP-92 = experiment: Growth inhibition of human HOP92 cells after 48 hrs by sulforhodamine B assay; format: functional; settings: HOP-92, 48 h
Plasmodium falciparum = experiment: Antimalarial activity after 72 hrs against chloroquine-sensitive Plasmodium falciparum D6 infected in erythrocytes by LDH assay; format: functional, organism-based; settings: D6, 72 h
MOLT-4 = experiment: Growth inhibition of human MOLT4 cells after 48 hrs by sulforhodamine B assay; format: functional; settings: MOLT-4, 48 h
PC-3 = experiment: Growth inhibition of human PC3 cells after 48 hrs by sulforhodamine B assay; format: functional; settings: PC-3, 48 h
UACC-257 = experiment: Growth inhibition of human UACC257 cells after 48 hrs by sulforhodamine B assay; format: functional; settings: UACC-257, 48 h
A549 = experiment: Growth inhibition of human A549 cells after 48 hrs by sulforhodamine B assay; format: functional; settings: A549, 48 h
IGROV-1 = experiment: Growth inhibition of human IGROV1 cells after 48 hrs by sulforhodamine B assay; format: functional; settings: IGROV-1, 48 h
HCT-116 = experiment: Growth inhibition of human HCT116 cells after 48 hrs by sulforhodamine B assay; format: functional; settings: HCT-116, 48 h
[1] = Selectivity index, ratio of TC50 for african green monkey (Cercopithecus aethiops) Vero cells to IC50 for chloroquine-resistant Plasmodium falciparum W2; format: toxicity, cell-based
Malme-3M = experiment: Growth inhibition of human MALME-3M cells after 48 hrs by sulforhodamine B assay; format: functional
ACHN = experiment: Growth inhibition of human ACHN cells after 48 hrs by sulforhodamine B assay; format: functional
OVCAR-8 = experiment: Growth inhibition of human OVCAR8 cells after 48 hrs by sulforhodamine B assay; format: functional; settings: OVCAR-8, 48 h
NCI-H226 = experiment: Growth inhibition of human NCI-H226 cells after 48 hrs by sulforhodamine B assay; format: functional; settings: NCI-H226, 48 h
BT-549 = experiment: Growth inhibition of human BT549 cells after 48 hrs by sulforhodamine B assay; format: functional; settings: BT-549, 48 h
CAKI-1 = experiment: Growth inhibition of human Caki1 cells after 48 hrs by sulforhodamine B assay; format: functional; settings: CAKI-1, 48 h
MDA-N = experiment: Growth inhibition of human MDA-N cells after 48 hrs by sulforhodamine B assay; format: functional
SK-MEL-28 = experiment: Growth inhibition of human SK-MEL-28 cells after 48 hrs by sulforhodamine B assay; format: functional; settings: SK-MEL-28, 48 h
HCC 2998 = experiment: Growth inhibition of human HCC2998 cells after 48 hrs by sulforhodamine B assay; format: functional; settings: HCC 2998, 48 h
HT-29 = experiment: Growth inhibition of human HT-29 cells after 48 hrs by sulforhodamine B assay; format: functional; settings: HT-29, 48 h
LOX IMVI = experiment: Growth inhibition of human LOXIMVI cells after 48 hrs by sulforhodamine B assay; format: functional
SW-620 = experiment: Growth inhibition of human SW620 cells after 48 hrs by sulforhodamine B assay; format: functional; settings: SW-620, 48 h
MDA-MB-435 = experiment: Growth inhibition of human MDA-MB-435 cells after 48 hrs by sulforhodamine B assay; format: functional; settings: MDA-MB-435, 48 h
786-0 = experiment: Growth inhibition of human 786-0 cells after 48 hrs by sulforhodamine B assay; format: functional; settings: 786-0, 48 h
OVCAR-5 = experiment: Growth inhibition of human OVCAR5 cells after 48 hrs by sulforhodamine B assay; format: functional; settings: OVCAR-5, 48 h
MDA-MB-231 = experiment: Growth inhibition of human MDA-MB-231 cells after 48 hrs by sulforhodamine B assay; format: functional; settings: MDA-MB-231, 48 h
HOP-62 = experiment: Growth inhibition of human HOP62 cells after 48 hrs by sulforhodamine B assay; format: functional; settings: HOP-62, 48 h
SK-MEL-5 = experiment: Growth inhibition of human SK-MEL-5 cells after 48 hrs by sulforhodamine B assay; format: functional; settings: SK-MEL-5, 48 h
[2] = Cytotoxicity against african green monkey Vero cells after 48 hrs by neutral red assay; format: cell-based; settings: chlorocebus sabaeus, read-out: TC50
[3] = Growth inhibition of human Hs 578T cells after 48 hrs by sulforhodamine B assay; format: functional
NCI-H522 = experiment: Growth inhibition of human NCI-H522 cells after 48 hrs by sulforhodamine B assay; format: functional; settings: NCI-H522, 48 h
[4] = Selectivity index, ratio of TC50 for african green monkey (Cercopithecus aethiops) Vero cells to IC50 for chloroquine-sensitive Plasmodium falciparum D6; format: toxicity, cell-based
CCRF-CEM = experiment: Growth inhibition of human CCRF-CEM cells after 48 hrs by sulforhodamine B assay; format: functional
EKVX = experiment: Growth inhibition of human EKVX cells after 48 hrs by sulforhodamine B assay; format: functional
[5] = Growth inhibition of human […] cells after 48 hrs by sulforhodamine B assay; format: functional
SF-268 = experiment: Growth inhibition of human SF268 cells after 48 hrs by sulforhodamine B assay; format: functional; settings: SF-268, 48 h
NCI/ADR-RES = experiment: Growth inhibition of human NCI/ADR-RES cells after 48 hrs by sulforhodamine B assay; format: functional
M14 = experiment: Growth inhibition of human M14 cells after 48 hrs by sulforhodamine B assay; format: functional; settings: M14, 48 h
HCT-15 = experiment: Growth inhibition of human HCT15 cells after 48 hrs by sulforhodamine B assay; format: functional; settings: HCT-15, 48 h
SR = experiment: Growth inhibition of human SR cells after 48 hrs by sulforhodamine B assay; format: functional
A498 = experiment: Growth inhibition of human A498 cells after 48 hrs by sulforhodamine B assay; format: functional; settings: A498, 48 h
HL-60 = experiment: Growth inhibition of human HL-60(TB) cells after 48 hrs by sulforhodamine B assay; format: functional; settings: HL-60, 48 h
MCF7 = experiment: Growth inhibition of human MCF7 cells after 48 hrs by sulforhodamine B assay; format: functional; settings: MCF7, 48 h
RXF 393 = experiment: Growth inhibition of human RXF393 cells after 48 hrs by sulforhodamine B assay; format: functional; settings: RXF 393, 48 h
UACC-62 = experiment: Growth inhibition of human UACC62 cells after 48 hrs by sulforhodamine B assay; format: functional; settings: UACC-62, 48 h

## C[C@H]1[C@@H](OCC(O)CO[C@@H]2C[C@@H]3CC[C@@H](C)[C@@H]4CC[C@@]5(C)OO[C@@]34[C@H](O2)O5)O[C@@H]2O[C@@]3(C)CC[C@H]4[C@H](C)CC[C@@H]1[C@@]24OO3 (some centres not stated)
SF-295
  GI50: 9.52 µM
KM12
  GI50: 0.166 µM
OVCAR-3
  GI50: 0.171 µM
HOP-92
  GI50: 0.384 µM
Plasmodium falciparum
  pIC50: 6.52
MOLT-4
  GI50: 0.298 µM
PC-3
  GI50: 0.035 µM
UACC-257
  GI50: 0.257 µM
A549
  GI50: 0.505 µM
IGROV-1
  GI50: 13.1 µM
HCT-116
  GI50: 0.049 µM
[1]
  selectivity ratio: > 6430
Malme-3M
  GI50: 8.82 µM
ACHN
  GI50: 0.248 µM
OVCAR-8
  GI50: 0.252 µM
NCI-H226
  GI50: 61.7 µM
BT-549
  GI50: 0.408 µM
CAKI-1
  GI50: 0.256 µM
MDA-N
  GI50: 0.368 µM
SK-MEL-28
  GI50: 9.39 µM
HCC 2998
  GI50: 7.02 µM
HT-29
  GI50: 0.268 µM
LOX IMVI
  GI50: 0.11 µM
SW-620
  GI50: 0.099 µM
MDA-MB-435
  GI50: 0.301 µM
786-0
  GI50: 0.417 µM
OVCAR-5
  GI50: 17.7 µM
MDA-MB-231
  GI50: 45.8 µM
HOP-62
  GI50: 13.3 µM
SK-MEL-5
  GI50: 0.095 µM
[2]
  CC50 at 48 h: > 7620 µM
[3]
  GI50: 12.5 µM
NCI-H522
  GI50: 0.521 µM
[4]
  selectivity ratio: > 23800
CCRF-CEM
  GI50: 0.104 µM
EKVX
  GI50: 0.307 µM
[5]
  GI50: 0.024 µM
SF-268
  GI50: 13.7 µM
NCI/ADR-RES
  GI50: 0.34 µM
M14
  GI50: 14.9 µM
HCT-15
  GI50: 0.027 µM
SR
  GI50: 0.178 µM
A498
  GI50: 0.686 µM
HL-60
  GI50: 0.062 µM
MCF7
  GI50: 0.095 µM
RXF 393
  GI50: 0.213 µM
UACC-62
  GI50: 0.296 µM

Reference: ChEMBL document CHEMBL1140860, “Synthesis and evaluation of dihydroartemisinin and dihydroartemisitene acetal dimers showing anticancer and antiprotozoal activity” (Bioorg Med Chem, 2009)
